Laboratory results: PubChem BioAssay AID1919010 (Molecular Pharmacology Branch, DTP, NCI, 2023)

Test system: Hs578T complex spheroid growth, percent test/control
Assay: Anticancer human tumor Hs578T cell line growth inhibition [AhR];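 note: luminescent viability signal as a proxy for spheroid growth; spheroids exposed to agents for one week after three days of growth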
Settings: for IC50: curve of first compound; for viability, T/C: stronger effect = lower value
Procedure, shortened: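 Spheroids combined tumor cells with HUVEC endothelial cells and human MSCs as stroma. AhR antagonists were paired with standard or investigational drugs, each dosed in half-log steps down from near clinical Cmax, or from 10 microM where Cmax was unknown.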

Q: Which IC50 (second compound 0.1 µM) does the source give for `CC(C)c1c(-c2ccccc2)nc2c(C#N)c[nH]n2c1=O` + Cc1cncc(-c2nc(NCCc3c[nH]c4ccccc34)c3ncn(C(C)C)c3n2)c1 here?
A: The IC50 was > 10 µM.

Q: And the IC50 (second compound 0.316 µM)?
A: Its IC50 is > 10 µM.

Q: And the IC50 (second compound 1 µM)?
A: The IC50 was > 10 µM.

Q: What about the IC50 (second compound 3.16 µM) of the same compound?
A: The IC50 was > 10 µM.

Q: What about the IC50 (second compound 10 µM) of the same compound?
A: The IC50 was < 0.0316 µM.

Q: And the viability, T/C (second compound 0.1 µM, first compound 0.0316 µM)?
A: The viability, T/C was 114%.

Q: What about the viability, T/C (second compound 0.1 µM, first compound 0.1 µM) of the same compound?
A: Its viability, T/C is 113%.

Q: What about the viability, T/C (second compound 0.1 µM, first compound 0.316 µM) of the same compound?
A: Its viability, T/C is 110%.

Q: What about the viability, T/C (second compound 0.1 µM, first compound 1 µM) of the same compound?
A: Its viability, T/C is 108%.

Q: What about the viability, T/C (second compound 0.1 µM, first compound 3.16 µM) of the same compound?
A: Its viability, T/C is 109%.

Q: What about the viability, T/C (second compound 0.1 µM, first compound 10 µM) of the same compound?
A: Its viability, T/C is 96.4%.

Q: What about the viability, T/C (second compound 0.316 µM, first compound 0.0316 µM) of the same compound?
A: Its viability, T/C is 112%.

Q: What about the viability, T/C (second compound 0.316 µM, first compound 0.1 µM) of the same compound?
A: Its viability, T/C is 104%.

Q: What about the viability, T/C (second compound 0.316 µM, first compound 0.316 µM) of the same compound?
A: The viability, T/C was 113%.

Q: What about the viability, T/C (second compound 0.316 µM, first compound 1 µM) of the same compound?
A: The viability, T/C was 103%.

Q: What about the viability, T/C (second compound 0.316 µM, first compound 3.16 µM) of the same compound?
A: The viability, T/C was 109%.

Q: What about the viability, T/C (second compound 0.316 µM, first compound 10 µM) of the same compound?
A: The viability, T/C was 107%.

Q: And the viability, T/C (second compound 1 µM, first compound 0.0316 µM)?
A: Its viability, T/C is 99.6%.

Q: And the viability, T/C (second compound 1 µM, first compound 0.1 µM)?
A: The viability, T/C was 101%.

Q: And the viability, T/C (second compound 1 µM, first compound 0.316 µM)?
A: Its viability, T/C is 107%.

Q: What about the viability, T/C (second compound 1 µM, first compound 1 µM) of the same compound?
A: The viability, T/C was 100%.

Q: And the viability, T/C (second compound 1 µM, first compound 3.16 µM)?
A: The viability, T/C was 102%.

Q: And the viability, T/C (second compound 1 µM, first compound 10 µM)?
A: The viability, T/C was 99.5%.

Q: And the viability, T/C (second compound 3.16 µM, first compound 0.0316 µM)?
A: Its viability, T/C is 61.3%.

Q: What about the viability, T/C (second compound 3.16 µM, first compound 0.1 µM) of the same compound?
A: Its viability, T/C is 65.5%.

Q: And the viability, T/C (second compound 3.16 µM, first compound 0.316 µM)?
A: Its viability, T/C is 68.6%.

Q: And the viability, T/C (second compound 3.16 µM, first compound 1 µM)?
A: Its viability, T/C is 62.9%.

Q: And the viability, T/C (second compound 3.16 µM, first compound 3.16 µM)?
A: Its viability, T/C is 55.8%.

Q: And the viability, T/C (second compound 3.16 µM, first compound 10 µM)?
A: The viability, T/C was 66.9%.

Q: What about the viability, T/C (second compound 10 µM, first compound 0.0316 µM) of the same compound?
A: The viability, T/C was 4.95%.

Q: And the viability, T/C (second compound 10 µM, first compound 0.1 µM)?
A: The viability, T/C was 6.12%.

Q: And the viability, T/C (second compound 10 µM, first compound 0.316 µM)?
A: Its viability, T/C is 4.81%.

Q: What about the viability, T/C (second compound 10 µM, first compound 1 µM) of the same compound?
A: The viability, T/C was 4.87%.

Q: And the viability, T/C (second compound 10 µM, first compound 3.16 µM)?
A: Its viability, T/C is 5.51%.

Q: And the viability, T/C (second compound 10 µM, first compound 10 µM)?
A: Its viability, T/C is 7.39%.
